The subject of one series is PANC-1. The experiment in a line: Antiproliferative activity against human PANC-1 cells assessed as inhibition of cell proliferation measured after 24 hrs by MTT assay. Type of series: functional, cell-based. As to conditions: PANC-1, 24 h. For orientation: Tetrazolium dyes change colour on reduction, which living cells bring about.
The subject of another series is A549. Description: Antiproliferative activity against human A549 cells assessed as inhibition of cell proliferation measured after 24 hrs by MTT assay. Type of series: functional, cell-based. The settings on record: A549, 24 h.
In a further series the test system is OVCAR-3. The experiment in a line: Antiproliferative activity against human OVCAR-3 cells assessed as inhibition of cell proliferation measured after 24 hrs by MTT assay. Type of series: functional, cell-based. The settings on record: OVCAR-3, 24 h.
The test system of a further series is HepG2. The experiment in a line: Antiproliferative activity against human HepG2 cells assessed as inhibition of cell proliferation measured after 24 hrs by MTT assay. As to conditions: HepG2, 24 h. The class given is functional, cell-based.
A further series has as its system LoVo. Description: Antiproliferative activity against human LoVo cells assessed as inhibition of cell proliferation measured after 24 hrs by MTT assay. Type of series: functional, cell-based.
Another series relates to SGC-7901. Description: Antiproliferative activity against human SGC-7901 cells assessed as inhibition of cell proliferation measured after 24 hrs by MTT assay. Type of series: functional, cell-based. The settings on record: SGC-7901, 24 h.
Series [1] is described as follows: Cytotoxicity against human GES1 cells assessed as reduction in cell viability measured after 24 hrs by MTT assay. Type of series: cell-based.
Series [2] addresses Heat shock protein HSP 90-alpha (Homo sapiens, UniProt P07900). The experiment in a line: Inhibition of recombinant human N terminal his-tagged HSP90 alpha (1 to 732 residues) expressed in Escherichia coli measured after 60 mins by Flourescence polarization assay.
The nature of series [3]: Cytotoxicity against human MRC5 cells assessed as reduction in cell viability measured after 24 hrs by MTT assay. Type of series: cell-based.
The nature of series [4]: Cytotoxicity against human IOSE80 cells assessed as reduction in cell viability measured after 24 hrs by MTT assay. The class given is cell-based.
The nature of series [5]: Cytotoxicity against human L02 cells assessed as reduction in cell viability measured after 24 hrs by MTT assay. The class given is cell-based.
The nature of series [6]: Cytotoxicity against human NCM460 cells assessed as reduction in cell viability measured after 24 hrs by MTT assay. The class given is cell-based.
The nature of series [7]: Cytotoxicity against human HPDE6c7 cells assessed as reduction in cell viability measured after 24 hrs by MTT assay. Type of series: functional.

The results in this text go back to ChEMBL document CHEMBL4813917, “2-((1-Phenyl-1H-1,2,3-triazol-4-yl)methyl)-2-azabicyclo[3.2.1]octan-3-one derivatives: Simplification and modification of aconitine scaffold for the discovery of novel anticancer agents” (Eur J Med Chem, 2021).

Broadly, the IC50 is the point on the concentration scale where inhibition reaches its midpoint. As usually defined, the CC50 is the concentration giving 50% cytotoxicity.

As for `COc1cccc(-n2cc(CN3C(=O)C[C@@H]4CC[C@@]3(C)C4(C)C)nn2)c1`, the IC50 stood at 860 nM with PANC-1; 240 nM in the series on A549; 280 nM with OVCAR-3; 70 nM in the series with HepG2; 80 nM in the series on LoVo; 590 nM in the series on SGC-7901.

Consider `Cc1ccc(-n2cc(CN3C(=O)C[C@@H]4CC[C@@]3(C)C4(C)C)nn2)cc1`, for which the IC50 with PANC-1 was 270 nM; in the series on A549 it was 400 nM; in the series with OVCAR-3, 40 nM; in the series on HepG2, 480 nM; in the series with LoVo it was 50 nM; with SGC-7901, 390 nM.

Take `CC1(C)[C@H]2CC[C@]1(C)N(Cc1cn(-c3cccc(C#N)c3)nn1)C(=O)C2`: the IC50 was found to be 260 nM in the series with PANC-1; 440 nM in the series with A549; 230 nM in the series on OVCAR-3; 40 nM in the series on HepG2; 320 nM in the series on LoVo; 250 nM in the series with SGC-7901.

Regarding `CC1(C)[C@H]2CC[C@]1(C)N(Cc1cn(-c3ccccc3Cl)nn1)C(=O)C2`, the IC50 was determined as 270 nM with PANC-1; 3.28 nM in series [2]; 70 nM in the series on A549; 40 nM with OVCAR-3; 60 nM in the series on HepG2; 190 nM in the series on LoVo. For the same compound, the IC50 with SGC-7901 turned out to be 220 nM. Besides, the CC50 at 24 h in series [1] was 5.37 µM; in series [3] it was 4.13 µM; in [4], 13.3 µM; in [5] it was 20.1 µM; in [6] it was 10.8 µM. Also, the CC50 in series [7] worked out at 3.94 µM.

With `CC1(C)[C@H]2CC[C@]1(C)N(Cc1cn(-c3ccccc3Br)nn1)C(=O)C2`, the IC50 in the series on PANC-1 was found to be 280 nM; in the series on A549, 130 nM; with OVCAR-3, 140 nM; with HepG2, 150 nM; in the series with LoVo, 60 nM; in the series on SGC-7901, 500 nM.

Take `CC1(C)[C@H]2CC[C@]1(C)N(Cc1cn(-c3ccccc3O)nn1)C(=O)C2`: the IC50 in the series on PANC-1 was determined as 230 nM; in the series on A549 it was 230 nM; in the series on OVCAR-3, 90 nM; in the series with HepG2 it was 120 nM; with LoVo it was 540 nM; in the series on SGC-7901 it was 410 nM.

On to `CC1(C)[C@H]2CC[C@]1(C)N(Cc1cn(-c3cccc(O)c3)nn1)C(=O)C2`, for which the IC50 in the series on PANC-1 was 280 nM; with A549 it was 180 nM; with OVCAR-3, 370 nM; in the series with HepG2 it was 70 nM; with LoVo, 410 nM; in the series with SGC-7901 it was 270 nM.

As to `CC1(C)[C@H]2CC[C@]1(C)N(Cc1cn(-c3cccc(F)c3)nn1)C(=O)C2`, the IC50 worked out at 220 nM with PANC-1; 180 nM in the series on A549; 430 nM with OVCAR-3; 80 nM with HepG2; 90 nM with LoVo; 530 nM with SGC-7901.

For the compound `CC1(C)[C@H]2CC[C@]1(C)N(Cc1cn(-c3ccc(F)cc3)nn1)C(=O)C2`, the IC50 in the series on PANC-1 is 110 nM; with A549 it was 230 nM; in the series with OVCAR-3, 200 nM; in the series with HepG2, 90 nM; in the series with LoVo, 40 nM; in the series on SGC-7901 it was 500 nM.

On to `COc1ccccc1-n1cc(CN2C(=O)C[C@@H]3CC[C@@]2(C)C3(C)C)nn1`, for which the IC50 in the series with PANC-1 is 120 nM; with A549 it was 350 nM; in the series on OVCAR-3, 140 nM; with HepG2, 110 nM; in the series on LoVo, 70 nM; in the series with SGC-7901, 280 nM.

With `Cc1ccccc1-n1cc(CN2C(=O)C[C@@H]3CC[C@@]2(C)C3(C)C)nn1`, the IC50 in the series with PANC-1 was 250 nM; in the series with A549, 90 nM; in the series on OVCAR-3, 150 nM; in the series on HepG2, 150 nM; with LoVo, 80 nM; in the series with SGC-7901 it was 350 nM.

With `CC1(C)[C@H]2CC[C@]1(C)N(Cc1cn(-c3ccc(Br)cc3)nn1)C(=O)C2`, the IC50 is 200 nM in the series on PANC-1; 80 nM in the series with A549; 140 nM with OVCAR-3; 110 nM in the series on HepG2; 60 nM in the series on LoVo; 450 nM in the series on SGC-7901.

For `COc1ccc(-n2cc(CN3C(=O)C[C@@H]4CC[C@@]3(C)C4(C)C)nn2)cc1`, the IC50 in the series with PANC-1 stood at 330 nM; in the series on A549, 50 nM; in the series with OVCAR-3 it was 250 nM; in the series on HepG2, 100 nM; in the series on LoVo, 70 nM; with SGC-7901 it was 480 nM.

On to `CC1(C)[C@H]2CC[C@]1(C)N(Cc1cn(-c3ccccc3F)nn1)C(=O)C2`, for which the IC50 in the series with PANC-1 stood at 150 nM; in series [2] it was 2.68 nM; in the series with A549, 240 nM; in the series with OVCAR-3, 300 nM; in the series on HepG2, 60 nM; with LoVo, 40 nM. Further, the half-inhibitory concentration (IC50) in the series on SGC-7901 stood at 300 nM. Also, the CC50 at 24 h in [1] worked out at 5.16 µM; in series [3], 15.1 µM; in series [4], 19.2 µM; in [5] it was 13.3 µM; in series [6], 5.26 µM. The CC50 in series [7] came to 26.2 µM.

With `CC1(C)[C@H]2CC[C@]1(C)N(Cc1cn(-c3ccc(Cl)cc3)nn1)C(=O)C2`, the IC50 in the series on PANC-1 turned out to be 440 nM; with A549 it was 70 nM; with OVCAR-3, 160 nM; in the series with HepG2, 90 nM; in the series on LoVo it was 160 nM; in the series with SGC-7901, 410 nM.

For the compound `CC1(C)[C@H]2CC[C@]1(C)N(Cc1cn(-c3ccc(O)cc3)nn1)C(=O)C2`, the IC50 with PANC-1 came out at 100 nM; in the series with A549 it was 140 nM; with OVCAR-3, 410 nM; in the series with HepG2, 80 nM; in the series on LoVo it was 410 nM; in the series on SGC-7901 it was 330 nM.

Consider `CC1(C)[C@H]2CC[C@]1(C)N(Cc1cn(-c3cccc(Cl)c3)nn1)C(=O)C2`, for which the IC50 in the series on PANC-1 came to 260 nM; in series [2] it was 7.38 nM; with A549 it was 60 nM; in the series with OVCAR-3, 50 nM; with HepG2, 60 nM; in the series with LoVo, 70 nM. In addition, in the series on SGC-7901, the IC50 turned out to be 510 nM. For the same compound, the CC50 at 24 h in series [1] stood at 69.8 µM; in series [3], 8.84 µM; in series [4], 13.5 µM; in [5], 8.51 µM; in series [6], 8.41 µM. Moreover, the CC50 in series [7] was determined as 13 µM.

As to `CC1(C)[C@H]2CC[C@]1(C)N(Cc1cn(-c3ccccc3C#N)nn1)C(=O)C2`, the IC50 in the series with PANC-1 was 240 nM; in [2] it was 7.99 nM; in the series with A549, 100 nM; in the series on OVCAR-3, 110 nM; in the series on HepG2 it was 180 nM; in the series on LoVo, 140 nM. Further, the IC50 in the series with SGC-7901 came out at 260 nM. The CC50 at 24 h in [1] worked out at 9.45 µM; in series [3], 23.3 µM; in [4], 13.8 µM; in [5], 46.1 µM; in series [6], 37.5 µM. Moreover, the CC50 in [7] is 16 µM.

Take `Cc1cccc(-n2cc(CN3C(=O)C[C@@H]4CC[C@@]3(C)C4(C)C)nn2)c1`: the IC50 in the series on PANC-1 was 240 nM; with A549, 50 nM; in the series on OVCAR-3, 160 nM; in the series on HepG2 it was 300 nM; with LoVo it was 50 nM; in the series with SGC-7901 it was 410 nM.
